Experimental findings from patent US20050288369A1, “Novel n-hydroxy thiourea, urea and amide compounds and the pharmaceutical compositions comprising the same” (priority 2002, published 2005) are described below.

In series [1] the target is T1, vanilloid receptor-1 (VR1) (Rattus norvegicus, UniProt O35433).
T1 construct: expressed in transfected cells; host or cells: Chinese Hamster Ovary cells (CHO, ATCC CCL-61), Tet-off inducible expression
The series can be described thus: [3H]RTX competition binding assay, VR1-expressing CHO cells. The settings on record: displacement of bound [3H]RTX; mean±SEM, 3 experiments. The method, then: The binding affinity activity of the target compounds for vanilloid receptor-1 was measured by an in vitro receptor binding affinity assay. In the receptor binding assay, the compounds were evaluated for their ability to displace bound [^3H]RTX from the receptor. The results are expressed in terms of Ki values (mean±SEM, 3 experiments) which represent the concentration of the non-radioactive ligand that displaces half of the bound labeled RTX.
The VR receptor binding affinity activity of the inventive compounds was measured by using Chinese Hamster Ovary (CHO, ATCC, No. CCL-61) cell whose cDNA of VR1 (pUHG102 VR1 plasmid) was transfected, which can control the expression of VR1 according to the presence of tetracycline and Tetracycline on/off system (pTet off regulatory plasmid, Clontech. Inc., USA) that the expression of VR1 is induced by removing tetracycline from the medium. […] The cells were cultured after removing tetracycline prior to 48 hours. The tetracycline free culture medium was seeded at the bottom of T75 flask, incubated to the extent that its density reaches at 90%, and washed once with PBS buffer solution. The cells were collected by using saline solution containing 5 mM EDTA and subjected to centrifugation slightly to obtain precipitates, further, which had been kept at the temperature of −20° C. before use.
Experiments were designed to assess inhibition of specific [^3H]RTX binding to membranes by non-radioactive compounds. The binding assay mixture containing [^3H]RTX ([…]), various concentrations of competitive binding substances, 0.25 mg/ml of BSA (Cohn fraction V), 5×10^4 ˜5×10^5 numbers of VR1 and the expression cell, was admixed with saline solution containing 450 μl of Ca^2+ and Mg^2+ and […] of BSA. Non-specific binding assay was measured after mixing 100 nM of non-radioactive RTX thereto. The reaction mixture was treated for 60 min at 37° C. and the reaction was quenched by cooling over ice. RTX bound to the membrane of VR1 was subjected to centrifugation with maximum velocity for 15 minutes to precipitate its membrane residue, which results in separating from non-binding RTX. The tips of tube containing above precipitate was cut off and the amount of bound radioisotope was determined by scintillation counter (LS6500, Beckman-Coulter, USA). The measurement of binding was determined in triplicate in each experiment, and each experiment was repeated at least two times. Binding data were analyzed by fitting to the Hill equation and the Ki (equilibrium binding parameter) index, the Bmax (maximum binding parameter) index, and the cooperativity index etc., were determined by using origin 6.0 program (Origin, MicroCal Co., USA).
An initial compound was dissolved in DMSO (dimethyl sulfoxide) and diluted with saline solution containing Ca^2+ and […], and […] of BSA.

For series [2], the target named is T2, VR1 (Rattus norvegicus, UniProt O35433).
T2 construct: expressed in transfected cells; host or cells: Chinese Hamster Ovary cells (CHO, ATCC CCL-61), Tet-off inducible expression
The experiment in a line: 45Ca influx test in CHO cells expressing VR1, antagonistic activity against 50 nM capsaicin. Type of series: cell-based. The settings on record: 45Ca uptake stimulated with 50 nM capsaicin. The protocol:
(§1) The ^45Ca Influx test by using CHO cells of the inventive compounds was measured by using Chinese Hamster Ovary (CHO, ATCC, No. CCL-61) cell whose cDNA of VR1 (pUHG102 VR1 plasmid) was transfected, which can control the expression of VR1 according to the presence of tetracycline and Tetracycline on/off system (pTet off regulatory plasmid, Clontech. Inc., USA) that the expression of VR1 is induced by removing tetracycline from the medium.
(§2) The CHO cells were poured onto 24 well plates to the extent that its density reaches at 30% and incubated for 24 hours at 37° C. The culture medium was exchanged to tetracycline free medium to induce the expression of VR1 and tested after 36 hours.
(§3) Together with 0.25 mg/ml BSA (Sigma A2153, USA), 1 Ci/ml ^45Ca(5-30 Ci/g used, ICN. Co., 62005 RT, U.S.A.), the test samples with increasing concentrations were added to each well. At the quenching moment of the incubation with ^45Ca, the cultured cells were removed from the medium, washed three times with cool PBS buffer solution containing 1.8 mM CaCl2 and 400 μl of RIPA buffer solution (50 mM Tris pH 7.4; 150 mM sodium chloride; 0.1% SDS; 1% sodium deoxycholate), was added in each well to homogenize the cells. The plates were stirred for 20 minutes slowly and 300 μl of cell lysate was transferred to scintillation vials from each wells. The radioactivity was determined by scintillation counter.
(§4) The data were assessed by determining four wells per each data point in each experiment and analyzed in computer by being transformed into Hill equation. The experiments were determined in triplicate in each sample comprising inventive compounds and control groups.
In order to determine the antagonistic activity, ^45Ca^2+-uptake stimulating-mixture was added with 50 nM capsaicin and the antagonistic activity was determined by the method for the agonistic activity. In case that 10 μM a certain compound cannot change the capsaicin-inducing activity, the compound shall be regarded as an […].

In another series the test system is Male ICR mice. The series can be described thus: Acetic acid-induced writhing test. It counts as in vivo. The settings on record: for ED50: Mus musculus, ip, i.p. 30 mins before 1.2% acetic acid i.p., 50% reduction of the number of writhes; for analgesic effect compared with thiourea compounds JYL-827 and 1433: writhing test. The method, then: The acetic acid-induced writhing test for testing the analgesic activity of inventive compounds prepared from above Examples was performed by the procedure described in the literature (Lee, J. W., Bioorganic & Medicinal Chemistry, pp 1713-1720, 2001).
Male ICR mice having its mean body weight of 25 g (CD-1; Biogenomics Co. Korea) were reared in lighting controlled environment (12 hrs on/12 hrs off) maintaining with temperatures at 22±2° C. and humidity at 50±5% and allowed to eat a diet and to drink tap water ad lib.
Mice were fasted overnight prior to testing and adopted to the environment.
0.3 ml of acetic acid solution (1.2%) was administrated in the mice intraperitoneally and then the mice were put into the transparent acryl box (15×15×15 cm). 5 minutes later, the number of abdominal constrictions was counted for 20 minutes. Each group consisting of ten mice was pretreated with test compounds or solvent (0.2 ml, i.p.) 30 mins before the injection of acetic acid. Test compounds were dissolved in the mixture of ethanol/Tween-80/saline ([…]) or cremophor EL/DMSO/d-water ([…]).
Analgesic activity of each drug was determined at several different concentrations.
The index of analgesic activity (eff) was defined as below Empirical formula 1. Analgesic activity (eff)=100−{(No. of abdominal constriction of test group/No. of abdominal constriction of control group)×100} [Empirical formula 1]
Analgesic activity was expressed as the reduction in the number of abdominal constrictions, of control animals (vehicle-pretreated mice) and animals pretreated with test compounds.

For series [3], the target named is T2, VR1. The experiment in a line: 45Ca influx test in CHO cells expressing VR1, agonistic activity. It counts as cell-based. To be noted: 45Ca uptake. The protocol:
The ^45Ca Influx test by using CHO cells expressing VR1 was performed by the procedure described in the literature (Lee, J. W., Bioorganic & Medicinal Chemistry, pp 1713-1720, 2001).
as §1, §2
as §3, with “In radioactive ^45Ca uptake experiment, The cells were incubated in […] of DMEM medium (Dulbecco's modified Eagles medium: Gibco-BRL, 31600-083) containing free of serum and 1.8 mM CaCl2 for 10 minutes at 37*C. Together” for “Together”
as §4

Some results are limits rather than exact numbers.

T2 sequence (O35433 whole entry): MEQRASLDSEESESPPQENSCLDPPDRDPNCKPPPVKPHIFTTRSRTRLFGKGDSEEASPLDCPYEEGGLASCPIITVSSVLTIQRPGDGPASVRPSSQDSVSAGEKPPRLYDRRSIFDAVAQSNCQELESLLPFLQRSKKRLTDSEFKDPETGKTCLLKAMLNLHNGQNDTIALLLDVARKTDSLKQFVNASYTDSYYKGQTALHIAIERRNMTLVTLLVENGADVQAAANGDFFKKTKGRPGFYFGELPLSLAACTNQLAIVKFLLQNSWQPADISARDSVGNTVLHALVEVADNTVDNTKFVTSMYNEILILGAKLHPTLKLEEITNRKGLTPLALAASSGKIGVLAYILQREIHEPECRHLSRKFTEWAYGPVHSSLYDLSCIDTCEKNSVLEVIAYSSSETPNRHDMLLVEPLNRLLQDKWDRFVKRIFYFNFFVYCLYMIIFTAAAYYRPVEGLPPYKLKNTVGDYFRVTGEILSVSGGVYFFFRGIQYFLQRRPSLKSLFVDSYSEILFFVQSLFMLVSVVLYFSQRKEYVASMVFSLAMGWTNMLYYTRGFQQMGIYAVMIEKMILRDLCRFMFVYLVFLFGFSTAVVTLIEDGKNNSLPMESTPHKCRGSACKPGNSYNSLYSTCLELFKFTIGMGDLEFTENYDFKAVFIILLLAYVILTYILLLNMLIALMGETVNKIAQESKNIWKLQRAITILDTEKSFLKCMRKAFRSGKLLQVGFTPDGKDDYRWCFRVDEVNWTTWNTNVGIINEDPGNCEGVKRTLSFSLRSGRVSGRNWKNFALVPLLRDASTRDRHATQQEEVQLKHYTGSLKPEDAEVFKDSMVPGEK
T1 sequence (O35433 whole entry): as above

The term Ki denotes the equilibrium dissociation constant of an inhibitor or competing ligand from its target. Higher therefore signals weaker binding. Usually IC50 stands for the point on the concentration scale where inhibition reaches its midpoint. Broadly, the ED50 is the dose at which the effect has come halfway, by size or by number of responders. Higher therefore signals weaker potency. As a reminder, the melting point is the temperature, or range, at which the solid turns liquid. In the case of `CC(C)(C)c1ccc(CN(O)C(=S)NCc2ccc(NS(C)(=O)=O)cc2)cc1` [Compound 28, N-(4-tert-butylbenzyl)-N-hydroxy-N-[4-(methylsulfonylamino)benzyl]thiourea], the melting point came out at 137 °C. The same compound registered a Ki in series [1] of 1090 nM. This compound came in with a half-maximal inhibitory concentration (IC50) against VR1 [2] of 470 nM. The compound further yielded an ED50 in the series with Male ICR mice of 1560 µg/kg.

As a reminder, the EC50 is the concentration that produces a half-maximal response. `COc1cc(CNC(=S)N(O)Cc2ccc(C(C)(C)C)cc2)ccc1NS(C)(=O)=O` [Compound 29, N-(4-tert-butylbenzyl)-N-hydroxy-N-[3-methoxy-4-(methylsulfonylamino)benzyl]thiourea] showed a melting point of 112.5 to 115 °C. The half-maximal effective concentration (EC50) on VR1 [3] is 2010 nM. Further, the 50% effective dose (ED50) in the series with Male ICR mice came to 0.103 µg/kg.

In turn, `CC(C)(C)c1ccc(CN(O)C(=S)NCc2ccc(NS(C)(=O)=O)c(F)c2)cc1` [Compound 30, N-(4-tert-butylbenzyl)-N-hydroxy-N-[3-fluoro-4-(methylsulfonylamino)benzyl]thiourea] had a melting point of 124 to 126 °C. For the same compound, the Ki in series [1] stood at 802 nM. In addition, the half-maximal effective concentration (EC50) on VR1 [3] is > 7060 nM. For the same compound, the 50% effective dose (ED50) in the series on Male ICR mice was 1.07 µg/kg.

For `Cc1ccc(CC(COC(=O)C(C)(C)C)CN(O)C(=S)NCc2ccc(NS(C)(=O)=O)cc2)cc1C` (centres unmarked) [Compound 35, N-[2-(3,4-dimethylbenzyl)-3-(pivaloyloxy)propyl]-N-hydroxy-N-[4-(methylsulfonylamino)benzyl]thiourea], in series [1], affinity was put at a Ki of 1040 nM. For the same compound, on VR1 [3], the EC50 was 1230 nM. On VR1 [2], this compound showed a 50% inhibitory concentration (IC50) of 212 nM. Besides, in the series with Male ICR mice, the 50% effect level (ED50) was put at a dose of 2.6 µg/kg; the “analgesic effect compared with thiourea compounds JYL-827 and 1433” value was “stronger analgesic effect”.

As to `Cc1ccc(CC(COC(=O)C(C)(C)C)CN(O)C(=S)NCc2ccc(NS(C)(=O)=O)c(F)c2)cc1C` (centres unmarked) [Compound 37, N-[2-(3,4-dimethylbenzyl)-3-(pivaloyloxy)propyl]-N-hydroxy-N-[3-fluoro-4-(methylsulfonylamino)benzyl]thiourea], the inhibition constant Ki in series [1] came to 212 nM. Also, the IC50 at VR1 [2] came out at 93.7 nM. For the same compound, in the series on Male ICR mice (ratio of writhing test ED50 values), the “analgesic effect, fold stronger than that of Ketorolac” value is on record as 43,000 fold. Besides, the “analgesic effect compared with thiourea compounds JYL-827 and 1433” value in the series on Male ICR mice is reported as “stronger analgesic effect”.

`CC(C)(C)c1ccc(CN(O)C(=O)Cc2ccc(NS(C)(=O)=O)cc2)cc1` [Compound 45, N-(4-tert-butylbenzyl)-N-hydroxy-[4-(methylsulfonylamino)phenyl] acetamide] came in with a melting point of 161 to 163 °C. Also, in series [1], the Ki stood at 6380 nM. The compound further displayed an EC50 at VR1 [3] of 3500 nM. The same compound registered a concentration for half-maximal inhibition (IC50) against VR1 [2] of 6590 nM.

The compound `CC(C)(C)c1ccc(CNC(=S)N(O)Cc2ccc(NS(C)(=O)=O)cc2)cc1` [Compound 60, N-(4-tert-butylbenzyl)-N-hydroxy-N-[4-(methylsulfonylamino)benzyl]thiourea] showed a melting point of 124 °C. The compound also had an inhibition constant (Ki) in series [1] of 4260 nM. The IC50 on VR1 [2] amounted to 465 nM.

The compound `Cc1ccc(CC(CNC(=S)N(O)Cc2ccc(NS(C)(=O)=O)cc2)COC(=O)C(C)(C)C)cc1C` (centres unmarked) [Compound 61, N-[2-(3,4-dimethylbenzyl)-3-(pivaloyloxy)propyl]-N-hydroxy-N-[4-(methylsulfonylamino)benzyl]thiourea] had a Ki in series [1] of 481 nM. The “EC50 (nM) (VR1/CHO)” value at VR1 [3] is given as “Weak”. Besides, on VR1 [2], the “IC50 (nM) (VR1/CHO)” value is listed as “Weak”.

Consider `CC(C)(C)c1ccc(CNC(=O)N(O)Cc2ccc(NS(C)(=O)=O)cc2)cc1` [Compound 62, N-(4-tert-butylbenzyl)-N-hydroxy-N-[4-(methylsulfonylamino)benzyl]urea], for which the melting point is 125 °C. The compound further came in with an EC50 on VR1 [3] of 1060 nM.
